According to publication PMC5362750, “Discovery of Potent, Selective, and Orally Bioavailable Small-Molecule Modulators of the Mediator Complex-Associated Kinases CDK8 and CDK19” (Journal of Medicinal Chemistry, 2016):

What was measured:
CHK2(R145W) = CHK2(R145W) (Homo sapiens, UniProt O96017, R145W); conditions: 1 µM, ATP at Km
ARK5 = target: T1, ARK5 (Homo sapiens, UniProt O60285); assay: Kinase panel (Millipore); format: biochemical; conditions: 1 µM, ATP at Km
T1 construct: purchased Millipore (KinaseProfiler) kinase panel

CLK2 = CLK2 (Homo sapiens, UniProt P49760); assay: Kinase panel (Millipore); format: biochemical; conditions: 1 µM, ATP at Km
PKG1BETA = target: T2, PKG1BETA (Homo sapiens, UniProt Q13976); assay: Kinase panel (Millipore); format: biochemical; conditions: 1 µM, ATP at Km
T2 construct: purchased Millipore (KinaseProfiler) kinase panel

HASPIN = target: T3, HASPIN (Homo sapiens, UniProt Q8TF76); assay: Kinase panel (Millipore); format: biochemical; conditions: 1 µM, ATP at Km
T3 construct: purchased Millipore (KinaseProfiler) kinase panel

MLK1 = target: T4, MLK1 (Homo sapiens, UniProt P80192); assay: Kinase panel (Millipore); format: biochemical; conditions: 1 µM, ATP at Km
T4 construct: purchased Millipore (KinaseProfiler) kinase panel

in vivo = conditions: NCr athymic, mouse, po, 30 mg/kg
GRK5 = target: T5, GRK5 (Homo sapiens, UniProt P34947); assay: Kinase panel (Millipore); format: biochemical; conditions: 1 µM, ATP at Km
T5 construct: purchased Millipore (KinaseProfiler) kinase panel

ARG = ARG (Homo sapiens, UniProt P42684); assay: Kinase panel (Millipore); format: biochemical; conditions: 1 µM, ATP at Km
MRCKBETA = target: T6, MRCKBETA (Homo sapiens, UniProt Q9Y5S2); assay: Kinase panel (Millipore); format: biochemical; conditions: 1 µM, ATP at Km
T6 construct: purchased Millipore (KinaseProfiler) kinase panel

CDK2/CYCLINA = CDK2/CYCLINA (Homo sapiens, UniProt P24941); conditions: 1 µM, ATP at Km
MSK2 = target: T7, MSK2 (Homo sapiens, UniProt O75676); assay: Kinase panel (Millipore); format: biochemical; conditions: 1 µM, ATP at Km
T7 construct: purchased Millipore (KinaseProfiler) kinase panel

EPHA7 = target: T8, EPHA7 (Homo sapiens, UniProt Q15375); assay: Kinase panel (Millipore); format: biochemical; conditions: 1 µM, ATP at Km
T8 construct: purchased Millipore (KinaseProfiler) kinase panel

MT3 (ML2) = conditions: 10 µM, agonist radioligand
RSK3 = RSK3 (Homo sapiens, UniProt Q15349); assay: Kinase panel (Millipore); format: biochemical; conditions: 1 µM, ATP at Km
MC3 (h) = target: T9, MC3 (h) (Homo sapiens, UniProt P41968); assay: CEREP binding assay; conditions: agonist radioligand, read-out: % Inhibition of Control Specific Binding
T9 construct: purchased Millipore (KinaseProfiler) kinase panel

TIE2 = target: T10, TIE2 (Homo sapiens, UniProt Q02763); assay: Kinase panel (Millipore); format: biochemical; conditions: 1 µM, ATP at Km
T10 construct: purchased Millipore (KinaseProfiler) kinase panel

CAMKIDELTA = CAMKIDELTA (Homo sapiens, UniProt Q8IU85); assay: Kinase panel (Millipore); format: biochemical; conditions: 1 µM, ATP at Km
DRAK1 = target: T11, DRAK1 (Homo sapiens, UniProt Q9UEE5); assay: Kinase panel (Millipore); format: biochemical; conditions: 1 µM, ATP at Km
T11 construct: purchased Millipore (KinaseProfiler) kinase panel

GABAB(1b) (h) = GABAB(1b) (h) (Homo sapiens, UniProt Q9UBS5); assay: biochemical; conditions: read-out: % Inhibition of Control Specific Binding
GABA transporter = conditions: 10 µM, antagonist radioligand
CCR2 (h) = target: T12, CCR2 (h) (Homo sapiens, UniProt P41597); assay: CEREP binding assay; conditions: agonist radioligand, read-out: % Inhibition of Control Specific Binding
T12 construct: purchased Millipore (KinaseProfiler) kinase panel

CAMKIV = CAMKIV (Homo sapiens, UniProt Q16566); assay: Kinase panel (Millipore); format: biochemical; conditions: 1 µM, ATP at Km
BTK = BTK (Homo sapiens, UniProt Q06187); assay: Kinase panel (Millipore); format: biochemical; conditions: 1 µM, ATP at Km
GRK6 = target: T13, GRK6 (Homo sapiens, UniProt P43250); assay: Kinase panel (Millipore); format: biochemical; conditions: 1 µM, ATP at Km
T13 construct: purchased Millipore (KinaseProfiler) kinase panel

PIM-1 = PIM-1 (Homo sapiens, UniProt P11309); assay: Kinase panel (Millipore); format: biochemical; conditions: 1 µM, ATP at Km
MCH1 (h) = target: T14, MCH1 (h) (Homo sapiens, UniProt Q99705); assay: CEREP binding assay; conditions: agonist radioligand, read-out: % Inhibition of Control Specific Binding
T14 construct: purchased Millipore (KinaseProfiler) kinase panel

EPHB3 = target: T15, EPHB3 (Homo sapiens, UniProt P54753); assay: Kinase panel (Millipore); format: biochemical; conditions: 1 µM, ATP at Km
T15 construct: purchased Millipore (KinaseProfiler) kinase panel

MAPK2 = MAPK2 (Homo sapiens, UniProt P28482); assay: Kinase panel (Millipore); format: biochemical; conditions: 1 µM, ATP at Km
CAMKIIDELTA = CAMKIIDELTA (Homo sapiens, UniProt Q13557); assay: Kinase panel (Millipore); format: biochemical; conditions: 1 µM, ATP at Km
PRK2 = target: T16, PRK2 (Homo sapiens, UniProt Q16513); assay: Kinase panel (Millipore); format: biochemical; conditions: 1 µM, ATP at Km
T16 construct: purchased Millipore (KinaseProfiler) kinase panel

TAO3 = target: T17, TAO3 (Homo sapiens, UniProt Q9H2K8); assay: Kinase panel (Millipore); format: biochemical; conditions: 1 µM, ATP at Km
T17 construct: purchased Millipore (KinaseProfiler) kinase panel

Ca2+ channel (N) = target: T18, Ca2+ channel (N) (Rattus norvegicus, UniProt Q02294); assay: CEREP binding assay; conditions: antagonist radioligand, read-out: % Inhibition of Control Specific Binding
T18 construct: CEREP

[…](D842V) = […](D842V) (Homo sapiens, UniProt P16234, D842V); conditions: 1 µM, ATP at Km
PKCBETAI = PKCBETAI (Homo sapiens, UniProt P05771); assay: Kinase panel (Millipore); format: biochemical; conditions: 1 µM, ATP at Km
CK1DELTA = CK1DELTA (Homo sapiens, UniProt P48730); assay: Kinase panel (Millipore); format: biochemical; conditions: 1 µM, ATP at Km
ZAP-70 = target: T19, ZAP-70 (Homo sapiens, UniProt P43403); assay: Kinase panel (Millipore); format: biochemical; conditions: 1 µM, ATP at Km
T19 construct: purchased Millipore (KinaseProfiler) kinase panel

ABL (H396P) = ABL (H396P) (Homo sapiens, UniProt P00519, H396P); conditions: 1 µM, ATP at Km
RET(V804L) = RET(V804L) (Homo sapiens, UniProt P07949, V804L); conditions: 1 µM, ATP at Km

T5 sequence (P34947 whole entry): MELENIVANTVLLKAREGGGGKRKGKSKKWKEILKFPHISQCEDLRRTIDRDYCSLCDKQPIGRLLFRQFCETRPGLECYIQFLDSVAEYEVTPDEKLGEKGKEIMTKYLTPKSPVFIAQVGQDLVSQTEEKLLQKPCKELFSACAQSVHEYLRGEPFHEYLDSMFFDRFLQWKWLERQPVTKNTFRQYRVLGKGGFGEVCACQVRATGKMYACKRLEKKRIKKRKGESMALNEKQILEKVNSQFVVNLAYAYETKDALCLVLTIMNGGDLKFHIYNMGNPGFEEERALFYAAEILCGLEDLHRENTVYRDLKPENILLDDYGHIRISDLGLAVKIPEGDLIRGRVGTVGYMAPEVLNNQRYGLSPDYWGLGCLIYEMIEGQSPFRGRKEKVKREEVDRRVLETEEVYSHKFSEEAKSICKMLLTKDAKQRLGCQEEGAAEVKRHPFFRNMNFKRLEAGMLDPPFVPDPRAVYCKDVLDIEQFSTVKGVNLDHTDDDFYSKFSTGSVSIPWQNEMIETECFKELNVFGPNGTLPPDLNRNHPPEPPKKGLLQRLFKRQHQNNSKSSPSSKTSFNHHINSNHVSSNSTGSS
T17 sequence (Q9H2K8 whole entry): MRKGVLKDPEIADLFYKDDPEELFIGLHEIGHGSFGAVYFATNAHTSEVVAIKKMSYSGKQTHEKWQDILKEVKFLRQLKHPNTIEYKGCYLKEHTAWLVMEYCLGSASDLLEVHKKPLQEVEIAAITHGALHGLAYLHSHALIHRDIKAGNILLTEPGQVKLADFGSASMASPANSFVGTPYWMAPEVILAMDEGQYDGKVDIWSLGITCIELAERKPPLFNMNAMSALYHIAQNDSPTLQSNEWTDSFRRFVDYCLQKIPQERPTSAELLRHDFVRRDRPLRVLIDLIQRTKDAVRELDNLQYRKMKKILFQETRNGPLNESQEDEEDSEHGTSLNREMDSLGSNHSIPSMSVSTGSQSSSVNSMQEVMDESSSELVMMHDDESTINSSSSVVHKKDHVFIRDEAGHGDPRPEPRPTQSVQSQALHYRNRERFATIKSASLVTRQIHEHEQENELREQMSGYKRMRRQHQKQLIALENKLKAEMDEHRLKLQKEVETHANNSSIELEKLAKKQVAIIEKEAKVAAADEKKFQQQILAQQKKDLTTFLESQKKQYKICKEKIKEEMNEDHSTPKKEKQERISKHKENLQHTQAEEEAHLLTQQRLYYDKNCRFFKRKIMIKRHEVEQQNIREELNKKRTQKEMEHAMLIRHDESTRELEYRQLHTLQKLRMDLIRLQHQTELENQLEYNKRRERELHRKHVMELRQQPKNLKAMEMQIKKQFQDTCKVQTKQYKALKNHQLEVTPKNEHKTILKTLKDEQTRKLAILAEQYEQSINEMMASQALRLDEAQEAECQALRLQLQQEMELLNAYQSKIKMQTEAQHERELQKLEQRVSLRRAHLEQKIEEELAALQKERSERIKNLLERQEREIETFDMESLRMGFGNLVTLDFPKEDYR
Chain of CHK2(R145W) (O96017 whole entry R145W): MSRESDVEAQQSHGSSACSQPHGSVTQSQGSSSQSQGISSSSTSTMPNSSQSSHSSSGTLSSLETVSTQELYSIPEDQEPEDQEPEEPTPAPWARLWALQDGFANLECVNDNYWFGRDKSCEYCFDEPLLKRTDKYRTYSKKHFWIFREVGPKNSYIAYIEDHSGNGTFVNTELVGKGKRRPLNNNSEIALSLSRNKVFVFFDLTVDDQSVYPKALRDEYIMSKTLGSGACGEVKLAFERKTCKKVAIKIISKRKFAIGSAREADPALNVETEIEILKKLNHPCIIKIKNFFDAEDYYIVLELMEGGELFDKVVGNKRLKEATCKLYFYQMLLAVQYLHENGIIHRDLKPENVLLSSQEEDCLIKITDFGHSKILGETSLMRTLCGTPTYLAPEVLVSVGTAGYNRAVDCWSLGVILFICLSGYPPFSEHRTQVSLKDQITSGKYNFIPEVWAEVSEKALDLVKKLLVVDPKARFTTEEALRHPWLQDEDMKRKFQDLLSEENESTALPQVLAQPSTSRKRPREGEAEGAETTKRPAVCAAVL
T16 sequence (Q16513 whole entry): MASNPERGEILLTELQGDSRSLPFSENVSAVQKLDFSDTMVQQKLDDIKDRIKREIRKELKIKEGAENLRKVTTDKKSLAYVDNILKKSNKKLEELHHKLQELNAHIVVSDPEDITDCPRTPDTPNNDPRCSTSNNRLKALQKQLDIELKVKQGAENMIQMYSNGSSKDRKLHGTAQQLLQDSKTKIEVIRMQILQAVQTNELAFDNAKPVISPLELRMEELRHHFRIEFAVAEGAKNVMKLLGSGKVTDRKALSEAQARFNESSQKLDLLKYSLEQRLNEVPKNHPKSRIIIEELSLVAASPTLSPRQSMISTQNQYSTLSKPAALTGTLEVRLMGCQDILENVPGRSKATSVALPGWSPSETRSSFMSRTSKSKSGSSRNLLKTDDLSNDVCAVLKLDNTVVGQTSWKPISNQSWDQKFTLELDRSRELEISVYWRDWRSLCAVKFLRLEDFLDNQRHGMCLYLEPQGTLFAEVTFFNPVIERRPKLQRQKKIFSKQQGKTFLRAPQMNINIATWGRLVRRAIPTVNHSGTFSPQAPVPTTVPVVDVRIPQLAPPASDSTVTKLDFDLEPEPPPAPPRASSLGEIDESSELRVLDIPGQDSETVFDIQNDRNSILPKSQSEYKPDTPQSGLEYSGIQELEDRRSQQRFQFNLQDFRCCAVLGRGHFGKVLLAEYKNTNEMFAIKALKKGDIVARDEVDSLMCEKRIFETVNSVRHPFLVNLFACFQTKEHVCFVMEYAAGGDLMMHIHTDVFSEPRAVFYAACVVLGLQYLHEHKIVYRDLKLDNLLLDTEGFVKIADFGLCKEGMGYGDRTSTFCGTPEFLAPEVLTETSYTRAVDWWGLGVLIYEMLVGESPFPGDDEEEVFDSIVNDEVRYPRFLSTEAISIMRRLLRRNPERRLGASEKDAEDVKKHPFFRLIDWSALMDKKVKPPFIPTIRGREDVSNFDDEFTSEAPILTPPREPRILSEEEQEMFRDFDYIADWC
Chain of MAPK2 (P28482 whole entry): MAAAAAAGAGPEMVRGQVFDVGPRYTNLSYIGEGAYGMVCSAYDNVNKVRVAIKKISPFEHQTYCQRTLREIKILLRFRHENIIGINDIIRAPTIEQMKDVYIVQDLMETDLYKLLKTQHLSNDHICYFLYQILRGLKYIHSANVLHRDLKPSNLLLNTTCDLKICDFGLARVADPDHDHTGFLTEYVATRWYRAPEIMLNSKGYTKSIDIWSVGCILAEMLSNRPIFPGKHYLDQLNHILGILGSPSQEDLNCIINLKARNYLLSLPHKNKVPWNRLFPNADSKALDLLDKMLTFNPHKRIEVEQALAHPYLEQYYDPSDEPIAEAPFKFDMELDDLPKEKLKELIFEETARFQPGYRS
Chain of CAMKIDELTA (Q8IU85 whole entry): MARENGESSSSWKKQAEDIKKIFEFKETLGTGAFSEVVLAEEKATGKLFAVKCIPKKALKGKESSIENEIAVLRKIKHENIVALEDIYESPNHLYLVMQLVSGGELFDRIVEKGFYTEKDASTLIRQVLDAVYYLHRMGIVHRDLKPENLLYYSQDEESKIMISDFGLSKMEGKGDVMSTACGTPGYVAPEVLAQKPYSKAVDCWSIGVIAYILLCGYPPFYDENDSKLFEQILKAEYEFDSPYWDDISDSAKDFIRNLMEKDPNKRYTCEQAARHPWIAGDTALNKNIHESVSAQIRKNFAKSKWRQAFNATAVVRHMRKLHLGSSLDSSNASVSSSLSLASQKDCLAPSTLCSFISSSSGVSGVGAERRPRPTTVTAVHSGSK
T14 sequence (Q99705 whole entry): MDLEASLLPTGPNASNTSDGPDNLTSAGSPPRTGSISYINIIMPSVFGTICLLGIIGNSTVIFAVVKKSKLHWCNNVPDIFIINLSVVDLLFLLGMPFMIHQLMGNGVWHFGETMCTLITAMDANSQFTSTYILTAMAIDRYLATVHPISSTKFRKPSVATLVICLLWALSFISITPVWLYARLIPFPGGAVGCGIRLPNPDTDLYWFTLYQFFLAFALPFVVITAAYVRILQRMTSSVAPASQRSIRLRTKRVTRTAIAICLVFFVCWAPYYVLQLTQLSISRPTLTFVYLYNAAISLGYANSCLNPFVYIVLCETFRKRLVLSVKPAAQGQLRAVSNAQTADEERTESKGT
T2 sequence (Q13976 1-686 isoform Q13976-2): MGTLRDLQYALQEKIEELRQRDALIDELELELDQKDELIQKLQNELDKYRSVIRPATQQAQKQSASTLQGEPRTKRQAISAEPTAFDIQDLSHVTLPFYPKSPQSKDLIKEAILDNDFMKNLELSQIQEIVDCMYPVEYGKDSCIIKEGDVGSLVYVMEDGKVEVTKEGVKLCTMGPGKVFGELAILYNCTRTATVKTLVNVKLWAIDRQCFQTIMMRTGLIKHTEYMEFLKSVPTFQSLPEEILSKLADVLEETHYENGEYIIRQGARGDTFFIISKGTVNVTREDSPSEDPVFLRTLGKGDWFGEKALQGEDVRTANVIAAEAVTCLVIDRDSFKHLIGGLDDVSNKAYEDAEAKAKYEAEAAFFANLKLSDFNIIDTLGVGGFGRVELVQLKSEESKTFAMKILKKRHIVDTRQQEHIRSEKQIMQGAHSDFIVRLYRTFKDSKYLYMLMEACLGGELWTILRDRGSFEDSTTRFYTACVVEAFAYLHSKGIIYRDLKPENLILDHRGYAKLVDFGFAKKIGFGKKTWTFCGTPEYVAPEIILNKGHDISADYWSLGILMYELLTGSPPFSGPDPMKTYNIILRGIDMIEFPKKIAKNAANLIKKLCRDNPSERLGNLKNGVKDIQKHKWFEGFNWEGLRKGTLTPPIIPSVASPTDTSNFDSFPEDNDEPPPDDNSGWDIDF

SMILES: Cn1ncc2cc(-c3cnc(N)c(Cl)c3N3CCC4(CCNC4=O)CC3)ccc21 [Compound 109, 8-(2-Amino-3-chloro-5-(1-methyl-1H-indazol-5-yl)pyridin-4-yl)-2,8-diazaspiro[4.5]decan-1-one]
- % effect (CHK2(R145W)): 7%
- % effect (ARK5): 10%
- % effect (CLK2): -2%
- % effect (PKG1BETA): -7%
- % effect (HASPIN): 26%
- % effect (MLK1): -10%
- concentration at 1 h (in vivo; Free Plasma conc.): 523 nM
- concentration at 2 h (in vivo; Free Plasma conc.): 240 nM
- concentration at 6 h (in vivo; Free Plasma conc.): 29 nM
- concentration at 24 h (in vivo; Free Plasma conc.): 3 nM
- concentration at 1 h (in vivo; Free tumor conc.): 171 nM
- concentration at 2 h (in vivo; Free tumor conc.): 120 nM
- concentration at 6 h (in vivo; Free tumor conc.): 55 nM
- concentration at 24 h (in vivo; Free tumor conc.): 28 nM
- concentration at 1 h (in vivo; Total Plasma conc.): 14900 nM
- concentration at 2 h (in vivo; Total Plasma conc.): 6860 nM
- concentration at 6 h (in vivo; Total Plasma conc.): 822 nM
- concentration at 24 h (in vivo; Total Plasma conc.): 90 nM
- concentration at 1 h (in vivo; Total tumor conc.): 4880 nM
- concentration at 2 h (in vivo; Total tumor conc.): 3420 nM
- concentration at 6 h (in vivo; Total tumor conc.): 1570 nM
- concentration at 24 h (in vivo; Total tumor conc.): 796 nM
- % effect (GRK5): 7%
- % effect (ARG): 5%
- % effect (MRCKBETA): -35%
- % effect (CDK2/CYCLINA): 1%
- % effect (MSK2): 5%
- % effect (EPHA7): 13%
- % Inhibition of Control Specific Binding (MT3 (ML2)): 71%
- % effect (RSK3): -15%
- inhibition at 10 µM (MC3 (h)): -24%
- % effect (TIE2): 14%
- % effect (CAMKIDELTA): 8%
- % effect (DRAK1): 1%
- inhibition at 10 µM (GABAB(1b) (h)): 2%
- % Inhibition of Control Specific Binding (GABA transporter): 3%
- inhibition at 10 µM (CCR2 (h)): -9%
- % effect (CAMKIV): 14%
- % effect (BTK): 6%
- % effect (GRK6): 5%
- % effect (PIM-1): 2%
- inhibition at 10 µM (MCH1 (h)): 34%
- % effect (EPHB3): 5%
- % effect (MAPK2): -6%
- % effect (CAMKIIDELTA): 7%
- % effect (PRK2): 1%
- % effect (TAO3): -11%
- inhibition at 10 µM (Ca2+ channel (N)): -12%
- % effect ([…](D842V)): -10%
- % effect (PKCBETAI): -4%
- % effect (CK1DELTA): 18%
- % effect (ZAP-70): 21%
- % effect (ABL (H396P)): -4%
- % effect (RET(V804L)): -7%
